Patent US5900488A, “Method for treating mycosis using imidazolylacetonitrile derivatives” (Nihon Nohyaku Co., Ltd., priority 1995, dated 1999)
≈ marks a conversion by molar mass, not a printed value. Read-outs that look alike come from different tables or passages of the source.

Experiments:
Candida albicans = assay: In vitro antifungal activity against Candida albicans, MIC by twofold micro-broth dilution (Test Example 3); format: cell-based
Experimental: MICs were determined by the twofold micro-broth dilution method with RPMI 1640 buffered with morphorino-propanesulfonic acid to a final molarity of 0.165M (pH 7.0). One hundred μl of a yeast cell suspension (1 to 5×10^3 cells/ml) and 100 μl of the compound-containing medium were pipetted into each well flat-bottomed microtiter plates. After incubation for 48 hours at 35° C., the turbidity of each well was measured at 630 nm.

Trichophyton rubrum = assay: In vitro activity against Trichophyton rubrum, MIC by twofold macro-broth dilution (Test Example 1); format: cell-based
Experimental: (§1) Minimum inhibitory concentrations (MICs) were determined by the twofold macro-broth dilution method with Sabouraud's glucose broth which constituted with 1% bactopeptone and 4% glucose. To each tube containing 9.8 ml of the broth, 0.1 ml of each testing compound dissolved in DMSO and 0.1 ml of a conidial suspension (1×10^6 conidia/ml) were added. The fungal growth was observed after incubation for 7 days at 27° C. The MIC was determined as the lowest drug concentration which prevented a visible fungal growth.

Aspergillus fumigatus = assay: In vitro antifungal activity against Aspergillus fumigatus, MIC by twofold agar dilution (Test Example 4); format: cell-based
Experimental: MICs were determined by the twofold agar dilution method with casitone agar which constituted with 0.9% bactocasitone, 1% bacto-yeast extract, 2% glucose, 0.1% KH2 PO4, 0.1% Na2 HPO4, 1% Na3 C6 H5 O7 and 1.6% agar. A loopful of each inoculum (1×10^6 conidia/ml) was streaked onto the agar plate containing a compound, and a fungal growth was observed after incubation for 48 hours at 35° C. The MIC was determined as the lowest drug concentration which prevented a visible fungal growth.

[1] = system: Trichophyton mentagrophytes; assay: In vitro activity against Trichophyton mentagrophytes, MIC by twofold macro-broth dilution (Test Example 1); format: cell-based; conditions: Trichophyton mentagrophytes, 7 days at 27° C.
Experimental: as §1

dermatophytes = assay: Antifungal activity against dermatophytes compared with racemic mixtures (general statement); conditions: especially highly sensitive strains

N#C/C(=C1/SC[C@@H](c2ccc(Cl)cc2Cl)S1)n1ccnc1 [Compound (B), R-(-)-(E)-[4-(2,4-dichlorophenyl)-1,3-dithiolan-2-ylidene]-1-imidazolylacetonitrile]
MIC (Candida albicans; IFO0197, strain IFO 0197, 80% inhibition, 48 hours at 35° C., pH 7.0, read-out: MIC): 0.0625 µg/mL (≈ 0.176 µM) | MIC (Candida albicans; IFO0579, strain IFO 0579, 80% inhibition, 48 hours at 35° C., pH 7.0, read-out: MIC): 0.0313 µg/mL (≈ 0.0883 µM) | MIC (Candida albicans; IFO1269, strain IFO 1269, 80% inhibition, 48 hours at 35° C., pH 7.0, read-out: MIC): 0.0625 µg/mL (≈ 0.176 µM) | MIC (Candida albicans; IFO1270, strain IFO 1270, 80% inhibition, 48 hours at 35° C., pH 7.0, read-out: MIC): 0.25 µg/mL (≈ 0.706 µM) | MIC (Candida albicans; IFO1385, strain IFO 1385, 80% inhibition, 48 hours at 35° C., pH 7.0, read-out: MIC): 0.0625 µg/mL (≈ 0.176 µM) | MIC (Candida albicans; IFO1386, strain IFO 1386, 80% inhibition, 48 hours at 35° C., pH 7.0, read-out: MIC): 0.125 µg/mL (≈ 0.353 µM) | MIC (Candida albicans; TIMM3163, strain TIMM 3163, 80% inhibition, 48 hours at 35° C., pH 7.0, read-out: MIC): 16 µg/mL (≈ 45.2 µM) | MIC (Candida albicans; TIMM3164, strain TIMM 3164, 80% inhibition, 48 hours at 35° C., pH 7.0, read-out: MIC): 0.5 µg/mL (≈ 1.41 µM) | MIC (Candida albicans; TIMM3165, strain TIMM 3165, 80% inhibition, 48 hours at 35° C., pH 7.0, read-out: MIC): 2 µg/mL (≈ 5.65 µM) | MIC (Candida albicans; TIMM3166, strain TIMM 3166, 80% inhibition, 48 hours at 35° C., pH 7.0, read-out: MIC): 1 µg/mL (≈ 2.82 µM) | sensitivity (in words) (Trichophyton rubrum): highly sensitive | MIC (Trichophyton rubrum; IFO5467, 168 h, strain IFO 5467, 7 days at 27° C.): 0.0025 µg/mL (≈ 0.00706 µM) | MIC (Trichophyton rubrum; IFO5807, 168 h, strain IFO 5807, 7 days at 27° C.): 0.0025 µg/mL (≈ 0.00706 µM) | MIC (Trichophyton rubrum; IFO5808, 168 h, strain IFO 5808, 7 days at 27° C.): 0.0025 µg/mL (≈ 0.00706 µM) | MIC (Trichophyton rubrum; IFO6203, 168 h, strain IFO 6203, 7 days at 27° C.): 0.0013 µg/mL (≈ 0.00367 µM) | MIC (Trichophyton rubrum; IFO6204, 168 h, strain IFO 6204, 7 days at 27° C.): 0.0025 µg/mL (≈ 0.00706 µM) | MIC (Trichophyton rubrum; IFO9185, 168 h, strain IFO 9185, 7 days at 27° C.): 0.0013 µg/mL (≈ 0.00367 µM) | MIC (Trichophyton rubrum; TIMM1822, 168 h, strain TIMM 1822, 7 days at 27° C.): 0.00063 µg/mL (≈ 0.00178 µM) | MIC (Trichophyton rubrum; TIMM1823, 168 h, strain TIMM 1823, 7 days at 27° C.): 0.0013 µg/mL (≈ 0.00367 µM) | MIC (Trichophyton rubrum; TIMM1824, 168 h, strain TIMM 1824, 7 days at 27° C.): 0.0013 µg/mL (≈ 0.00367 µM) | MIC (Trichophyton rubrum; TIMM1830, 168 h, strain TIMM 1830, 7 days at 27° C.): 0.00063 µg/mL (≈ 0.00178 µM) | MIC (Aspergillus fumigatus; TIMM0063, strain TIMM 0063, 48 hours at 35° C., read-out: MIC): 0.00063 µg/mL (≈ 0.00178 µM) | MIC (Aspergillus fumigatus; TIMM0078, strain TIMM 0078, 48 hours at 35° C., read-out: MIC): 0.00063 µg/mL (≈ 0.00178 µM) | MIC (Aspergillus fumigatus; TIMM1728, strain TIMM 1728, 48 hours at 35° C., read-out: MIC): ≤ 0.00031 µg/mL | MIC (Aspergillus fumigatus; TIMM1767, strain TIMM 1767, 48 hours at 35° C., read-out: MIC): 0.00063 µg/mL (≈ 0.00178 µM) | MIC ([1]; IFO5466, 168 h, strain IFO 5466): 0.02 µg/mL (≈ 0.0565 µM) | MIC ([1]; IFO5809, 168 h, strain IFO 5809): 0.005 µg/mL (≈ 0.0141 µM) | MIC ([1]; IFO5810, 168 h, strain IFO 5810): 0.005 µg/mL (≈ 0.0141 µM) | MIC ([1]; IFO5811, 168 h, strain IFO 5811): 0.01 µg/mL (≈ 0.0282 µM) | MIC ([1]; IFO5929, 168 h, strain IFO 5929): 0.01 µg/mL (≈ 0.0282 µM) | MIC ([1]; TIMM1189, 168 h, strain TIMM 1189): 0.01 µg/mL (≈ 0.0282 µM) | MIC ([1]; TIMM1814, 168 h, strain TIMM 1814): 0.02 µg/mL (≈ 0.0565 µM) | MIC ([1]; TIMM1815, 168 h, strain TIMM 1815): 0.02 µg/mL (≈ 0.0565 µM) | MIC ([1]; TIMM1817, 168 h, strain TIMM 1817): 0.01 µg/mL (≈ 0.0282 µM) | MIC ([1]; TIMM2789, 168 h, strain TIMM 2789): 0.0025 µg/mL (≈ 0.00706 µM) | antifungal activity relative to the racemic mixtures (dermatophytes): several times

CCC(C)n1ncn(-c2ccc(N3CCN(c4ccc(OC[C@H]5CO[C@](Cn6cncn6)(c6ccc(Cl)cc6Cl)O5)cc4)CC3)cc2)c1=O (relative stereo) [ITZ, (±)1-sec-Butyl-4-[p[4[p[[2R*,4S*2-(2,4-dichlorophenyl)-2-(1H-1,2,4-trizol-1-ylmethyl)-1,3-dioxolan-4-yl]methoxy]phenyl1-piperazinyl]phenyl.DELTA^21,2,4-triazolin-5-one]
MIC (Aspergillus fumigatus; TIMM0063, 48 h): 0.04 µg/mL (≈ 0.0567 µM) | MIC (Aspergillus fumigatus; TIMM0078, 48 h): 0.04 µg/mL (≈ 0.0567 µM) | MIC (Aspergillus fumigatus; TIMM1728, 48 h): 0.08 µg/mL (≈ 0.113 µM) | MIC (Aspergillus fumigatus; TIMM1767, 48 h): 0.08 µg/mL (≈ 0.113 µM)

OC(Cn1cncn1)(Cn1cncn1)c1ccc(F)cc1F [FCZ, 2(2,4-Difluorophenyl)-1,3-bis(1H-1,2,4-triazol-1-yl)-2-propanol]
MIC (Candida albicans; IFO0197, 48 h, pH 7): 0.25 µg/mL (≈ 0.816 µM) | MIC (Candida albicans; IFO0579, 48 h, pH 7): 0.125 µg/mL (≈ 0.408 µM) | MIC (Candida albicans; IFO1269, 48 h, pH 7): 0.25 µg/mL (≈ 0.816 µM) | MIC (Candida albicans; IFO1270, 48 h, pH 7): 0.25 µg/mL (≈ 0.816 µM) | MIC (Candida albicans; IFO1385, 48 h, pH 7): 0.25 µg/mL (≈ 0.816 µM) | MIC (Candida albicans; IFO1386, 48 h, pH 7): 0.5 µg/mL (≈ 1.63 µM) | MIC (Candida albicans; TIMM3163, 48 h, pH 7): 16 µg/mL (≈ 52.2 µM) | MIC (Candida albicans; TIMM3164, 48 h, pH 7): 2 µg/mL (≈ 6.53 µM) | MIC (Candida albicans; TIMM3165, 48 h, pH 7): > 32 µg/mL | MIC (Candida albicans; TIMM3166, 48 h, pH 7): 8 µg/mL (≈ 26.1 µM)
